In brackets after ≈: the same amount, converted by molar mass. Activity calls are given as the source filed them. The rule behind the calls is not given here.
Columns and labels:
[1] = system: Enterococcus faecalis; assay: Antibacterial activity against Streptococcus faecalis by two-fold agar dilution method; type: functional
[2] = system: Pseudomonas aeruginosa; assay: Antibacterial activity against Pseudomonas aeruginosa by two-fold agar dilution method; type: functional, organism-based
[3] = system: Staphylococcus aureus; assay: Antibacterial activity against penicillin G-resistant Staphylococcus aureus HH 127 by two-fold agar dilution method; type: functional
[4] = system: Escherichia coli; assay: Antibacterial activity against Escherichia coli 12140 by two-fold agar dilution method; type: functional
[5] = system: Klebsiella pneumoniae; assay: Antibacterial activity against Klebsiella pneumoniae 4200 by two-fold agar dilution method; type: functional
[6] = system: Salmonella paratyphi; assay: Antibacterial activity against Salmonella paratyphi ATCC 12176 by two-fold agar dilution method; type: functional, Salmonella enterica subsp. enterica serovar Paratyphi A; conditions: Salmonella enterica
[7] = system: Shigella flexneri; assay: Antibacterial activity against Shigella paradysenteriae HH 117 by two-fold agar dilution method; type: functional
[8] = system: Klebsiella aerogenes; assay: Antibacterial activity against Enterobacter aerogenes ATCC 13048 by two-fold agar dilution method; type: functional
[9] = system: Escherichia coli; assay: Antibacterial activity against Escherichia coli 12140 infected in sc dosed mouse assessed as host protection administered at 1 and 5 hrs post-infection; type: functional; conditions: Escherichia coli, 12140, sc; read-out: PD50
[10] = system: Staphylococcus aureus; assay: Antibacterial activity against Staphylococcus aureus 23390 by two-fold agar dilution method; type: functional, organism-based

| Compound | MIC [1] | Activity [2] | MIC [3] | MIC [4] | MIC [5] | MIC [6] | MIC [7] | MIC [8] | ED50 [9] | Activity [10] |
| --- | --- | --- | --- | --- | --- | --- | --- | --- | --- | --- |
| CCCS(=O)(=O)CC(=O)N[C@@H]1C(=O)N2C(C(=O)[O-])=C(CSc3nnc(C)s3)CS[C@H]12.[Na+] | > 13 µg/mL | inactive | 0.4 µg/mL | 6.2 µg/mL | 3.1 µg/mL | 1.6 µg/mL | 6.2 µg/mL | 50 µg/mL | 25 mg/kg | Active |
| CC(=O)OCC1=C(C(=O)O)N2C(=O)[C@@H](NC(=O)CS(=O)(=O)C(F)(F)F)[C@H]2SC1 | > 13 µg/mL | inactive | 6.2 µg/mL (≈ 13.9 µM) | 6.2 µg/mL (≈ 13.9 µM) | 6.2 µg/mL (≈ 13.9 µM) | 6.2 µg/mL (≈ 13.9 µM) | 13 µg/mL (≈ 29.1 µM) | 25 µg/mL (≈ 56 µM) | > 50 mg/kg | Active |
| CCCCS(=O)(=O)CC(=O)N[C@@H]1C(=O)N2C(C(=O)[O-])=C(CSc3nnc(C)s3)CS[C@H]12.[Na+] | > 13 µg/mL | inactive | 0.1 µg/mL | 6.2 µg/mL | 6.2 µg/mL | 1.6 µg/mL | 6.2 µg/mL | 25 µg/mL | > 50 mg/kg | Active |
| Cc1nnc(SCC2=C(C(=O)[O-])N3C(=O)[C@@H](NC(=O)CS(C)(=O)=O)[C@H]3SC2)s1.[Na+] | > 13 µg/mL | inactive | 1.6 µg/mL | 13 µg/mL | 3.1 µg/mL | 3.1 µg/mL | 13 µg/mL | > 200 µg/mL | – | Active |
| CCS(=O)(=O)CC(=O)N[C@@H]1C(=O)N2C(C(=O)[O-])=C(COC(C)=O)CS[C@H]12.[Na+] | > 13 µg/mL | inactive | 0.8 µg/mL | 25 µg/mL | 6.2 µg/mL | 3.1 µg/mL | 25 µg/mL | > 200 µg/mL | 70 mg/kg | Active |
| Cn1nnnc1SCC1=C(C(=O)[O-])N2C(=O)[C@@H](NC(=O)CS(=O)(=O)C(F)(F)F)[C@H]2SC1.[Na+] | > 13 µg/mL | inactive | 1.6 µg/mL | 1.6 µg/mL | 3.1 µg/mL | 1.6 µg/mL | 0.8 µg/mL | 3.1 µg/mL | 17 mg/kg | Active |
| Cn1nnnc1SCC1=C(C(=O)[O-])N2C(=O)[C@@H](NC(=O)CS(C)(=O)=O)[C@H]2SC1.[Na+] | > 13 µg/mL | inactive | 1.6 µg/mL | 1.6 µg/mL | 1.6 µg/mL | 0.8 µg/mL | 1.6 µg/mL | 25 µg/mL | 7 mg/kg | Active |
| CS(=O)(=O)CC(=O)N[C@@H]1C(=O)N2C(C(=O)[O-])=C(CSc3nnn[nH]3)CS[C@H]12.[Na+] | > 13 µg/mL | inactive | 6.2 µg/mL | 50 µg/mL | 3.1 µg/mL | 3.1 µg/mL | 25 µg/mL | > 200 µg/mL | 45 mg/kg | Active |
| CC(=O)OCC1=C(C(=O)O)N2C(=O)[C@@H](NC(=O)Cc3cccs3)[C@H]2SC1 [CEPHALOTHIN] | – | – | 0.2 µg/mL (≈ 0.504 µM) | 3.1 µg/mL (≈ 7.82 µM) | 3.1 µg/mL (≈ 7.82 µM) | 1.6 µg/mL (≈ 4.04 µM) | 6.2 µg/mL (≈ 15.6 µM) | 50 µg/mL (≈ 126 µM) | 50 mg/kg | Active |
| Cn1cnnc1SCC1=C(C(=O)[O-])N2C(=O)[C@@H](NC(=O)CS(C)(=O)=O)[C@H]2SC1.[Na+] | > 13 µg/mL | inactive | 3.1 µg/mL | 6.2 µg/mL | 6.2 µg/mL | 3.1 µg/mL | – | > 200 µg/mL | 22 mg/kg | Active |
| Cn1nnnc1SCC1=C(C(=O)[O-])N2C(=O)[C@@H](NC(=O)CS(N)(=O)=O)[C@H]2SC1.[Na+] | > 13 µg/mL | inactive | 1.6 µg/mL | 3.1 µg/mL | 13 µg/mL | 1.6 µg/mL | 3.1 µg/mL | 13 µg/mL | 38 mg/kg | Active |
| CC(=O)OCC1=C(C(=O)[O-])N2C(=O)[C@@H](NC(=O)CS(=O)(=O)c3ccccc3)[C@H]2SC1.[Na+] | > 13 µg/mL | inactive | 1.6 µg/mL | 50 µg/mL | 13 µg/mL | 13 µg/mL | 25 µg/mL | > 200 µg/mL | – | Active |
| CC(=O)OCC1=C(C(=O)[O-])N2C(=O)[C@@H](NC(=O)CS(N)(=O)=O)[C@H]2SC1.[Na+] | > 13 µg/mL | inactive | 1.6 µg/mL | 50 µg/mL | 25 µg/mL | 13 µg/mL | 25 µg/mL | 200 µg/mL | – | Active |
| CCCCS(=O)(=O)CC(=O)N[C@@H]1C(=O)N2C(C(=O)O)=C(COC(C)=O)CS[C@H]12 | > 13 µg/mL | inactive | 0.2 µg/mL (≈ 0.46 µM) | 13 µg/mL (≈ 29.9 µM) | 13 µg/mL (≈ 29.9 µM) | 3.1 µg/mL (≈ 7.13 µM) | 6.2 µg/mL (≈ 14.3 µM) | 50 µg/mL (≈ 115 µM) | 180 mg/kg | Active |
| CCCS(=O)(=O)CC(=O)N[C@@H]1C(=O)N2C(C(=O)O)=C(COC(C)=O)CS[C@H]12 | > 13 µg/mL | inactive | 0.8 µg/mL (≈ 1.9 µM) | 13 µg/mL (≈ 30.9 µM) | 6.2 µg/mL (≈ 14.7 µM) | 3.1 µg/mL (≈ 7.37 µM) | 13 µg/mL (≈ 30.9 µM) | 200 µg/mL (≈ 476 µM) | 56 mg/kg | Active |
| CC(C(=O)N[C@@H]1C(=O)N2C(C(=O)[O-])=C(CSc3nnnn3C)CS[C@H]12)S(C)(=O)=O.[Na+] (stereo partly drawn) | > 13 µg/mL | inactive | 3.1 µg/mL | 6.2 µg/mL | 6.2 µg/mL | 6.2 µg/mL | 3.1 µg/mL | 13 µg/mL | 50 mg/kg | Active |
| CCCS(=O)(=O)CC(=O)N[C@@H]1C(=O)N2C(C(=O)[O-])=C(CSc3nnnn3C)CS[C@H]12.[Na+] | > 13 µg/mL | inactive | 0.4 µg/mL | 1.6 µg/mL | 0.8 µg/mL | 0.4 µg/mL | 1.6 µg/mL | 6.2 µg/mL | 10 mg/kg | Active |
| Cc1nnc(SCC2=C(C(=O)O)N3C(=O)[C@@H](NC(=O)Cn4cnnn4)[C@H]3SC2)s1 [CEFAZOLIN] | – | – | 0.4 µg/mL (≈ 0.88 µM) | 0.8 µg/mL (≈ 1.76 µM) | 0.8 µg/mL (≈ 1.76 µM) | 0.8 µg/mL (≈ 1.76 µM) | 0.4 µg/mL (≈ 0.88 µM) | 1.6 µg/mL (≈ 3.52 µM) | 6 mg/kg | Active |
| CCS(=O)(=O)CC(=O)N[C@@H]1C(=O)N2C(C(=O)O)=C(CSc3nnc(C)s3)CS[C@H]12 | > 13 µg/mL | inactive | 0.4 µg/mL (≈ 0.836 µM) | 3.1 µg/mL (≈ 6.48 µM) | 1.6 µg/mL (≈ 3.34 µM) | 1.6 µg/mL (≈ 3.34 µM) | 6.2 µg/mL (≈ 13 µM) | 100 µg/mL (≈ 209 µM) | 8 mg/kg | Active |
| Cn1nnnc1SCC1=C(C(=O)O)N2C(=O)[C@@H](NC(=O)CSC(F)(F)F)[C@H]2SC1 [CEFAZAFLUR] | – | – | 0.4 µg/mL (≈ 0.85 µM) | 0.4 µg/mL (≈ 0.85 µM) | 0.8 µg/mL (≈ 1.7 µM) | 0.4 µg/mL (≈ 0.85 µM) | 0.2 µg/mL (≈ 0.425 µM) | 1.6 µg/mL (≈ 3.4 µM) | 2 mg/kg | Active |
| CC(=O)OCC1=C(C(=O)[O-])N2C(=O)[C@@H](NC(=O)CS(C)(=O)=O)[C@H]2SC1.[Na+] | > 13 µg/mL | inactive | 3.1 µg/mL | 13 µg/mL | 13 µg/mL | 13 µg/mL | 13 µg/mL | > 200 µg/mL | 62 mg/kg | Active |
| CS(=O)(=O)CC(=O)N[C@@H]1C(=O)N2C(C(=O)[O-])=C(CSc3cnn[nH]3)CS[C@H]12.[Na+] | > 13 µg/mL | inactive | 1.6 µg/mL | 13 µg/mL | 6.2 µg/mL | 6.2 µg/mL | 13 µg/mL | > 200 µg/mL | – | Active |
| CCS(=O)(=O)CC(=O)N[C@@H]1C(=O)N2C(C(=O)[O-])=C(CSc3nnnn3C)CS[C@H]12.[Na+] | > 13 µg/mL | inactive | 0.8 µg/mL | 1.6 µg/mL | 1.6 µg/mL | 0.8 µg/mL | 1.6 µg/mL | 100 µg/mL | 7 mg/kg | Active |
| Cn1nnnc1SCC1=C(C(=O)O)N2C(=O)[C@@H](NC(=O)CS(=O)(=O)c3ccccc3)[C@H]2SC1 | > 13 µg/mL | inactive | 0.4 µg/mL (≈ 0.783 µM) | 3.1 µg/mL (≈ 6.07 µM) | 3.1 µg/mL (≈ 6.07 µM) | 6.2 µg/mL (≈ 12.1 µM) | 1.6 µg/mL (≈ 3.13 µM) | 13 µg/mL (≈ 25.5 µM) | 25 mg/kg | Active |
| Cc1nnc(SCC2=C(C(=O)[O-])N3C(=O)[C@@H](NC(=O)CS(C)(=O)=O)[C@H]3SC2)[nH]1.[Na+] | > 13 µg/mL | inactive | 1.6 µg/mL | 6.2 µg/mL | 3.1 µg/mL | 1.6 µg/mL | 13 µg/mL | 200 µg/mL | 10 mg/kg | Active |
| CC(=O)OCC1=C(C(=O)[O-])N2C(=O)[C@@H](NC(=O)C(C)S(C)(=O)=O)[C@H]2SC1.[Na+] (stereo partly drawn) | > 13 µg/mL | inactive | 3.1 µg/mL | 25 µg/mL | 3.1 µg/mL | 13 µg/mL | 25 µg/mL | 50 µg/mL | – | Active |
| CCCCS(=O)(=O)CC(=O)N[C@@H]1C(=O)N2C(C(=O)[O-])=C(CSc3nnnn3C)CS[C@H]12.[Na+] | > 13 µg/mL | inactive | 0.4 µg/mL | 3.1 µg/mL | 3.1 µg/mL | 1.6 µg/mL | 3.1 µg/mL | 13 µg/mL | 21 mg/kg | Active |

Reference: ChEMBL document CHEMBL3272096, “Semisynthetic cephalosporins. Synthesis and structure-activity relationships of 7-sulfonylacetamido-3-cephem-4-carboxylic acids” (1976)
